Where a name gives a salt, the structure may show the parent alone. Read-outs that look alike come from different tables or passages of the source.
Columns and labels:
[1] = tested on: H460 non-small-cell lung cancer cells; assay: 24-hour MTT chemosensitivity assay with 72-hour recovery, H460; format: cell-based
Procedure: (§1) Chemosensitivity studies were undertaken using a 24‐hour MTT assay, with a 72‐hour recovery period. The IC50 values were determined against ovarian A2780 (cisplatin‐sensitive) and A2780cisR (cisplatin‐resistant) cancer cell lines, non‐small‐cell lung H460 cancer cell line, and normal prostate PNT2 cell line, exposed to each of compounds 4–8, cisplatin or the phosphine ligands (Table 1 and S4, Figures S29–S31). […] This is unusual but can be related to solubility issues not visible for the naked eye and thus hindering its activity in cells. […] When tested on their own, the phosphine ligands are not active below 100 μM for all four cell lines. […] This therefore prevents comparison with the well‐known RAPTA family, and more especially with RAPTA−C which bears a PTA ligand and a p‐cym ligand, making this complex relatively similar in terms of geometry with complex 4.[21] […] This confirms the interest of the sulfur coordinating atom in terms of cytotoxicity for organoruthenium complexes.[23]
(§2) Chemosensitivity assay: In vitro chemosensitivity tests were performed against A2780, A2780cisR, PNT2 and H460 cells. Cells were routinely maintained as monolayer cultures in RPMI 1640 medium supplemented with 10 % foetal calf serum, penicillin (100 I.U./mL) and streptomycin (100 μg/mL), sodium pyruvate (1 mM) and L‐glutamine (2 mM). For chemosensitivity studies, cells were seeded in 96‐well plates at a concentration of 7.5×10^3 cells per well and the plates were incubated for 24 h at 37 °C and a 5 % CO2 humidified atmosphere prior to drug exposure.
(§3) Complexes were dissolved in either DMSO (complexes 4, 5, and 8) or PBS (complexes 6 and 7) to provide stock solutions which were further diluted with media to provide a range of final concentrations. Drug‐media solutions were added to cells (the final concentration of DMSO was less than 1 % (v/v) in all cases) and incubated for 24 h at 37 °C and a 5 % CO2 humidified atmosphere. The drug‐media solution was removed from the wells and the cells were washed with PBS (100 μL, twice) and 200 μL of complete fresh media were added to each well. The plates were further incubated for 72 h at 37 °C and a 5 % CO2 humidified atmosphere to allow for a period of recovery. 3‐(4,5‐dimethylthiazol‐2‐yl)‐2,5‐diphenyltetrazolium bromide (MTT) (40 μL, 2.5 mg/mL) was added to each well and plates were incubated for 2 h. All solutions were then removed and 100 μL of DMSO was added to each well in order to dissolve the purple formazan crystals. A Thermo Scientific Multiskan EX microplate photometer was used to measure the absorbance in each well at 570 nm. Cell survival was determined as the absorbance of treated cells divided by the absorbance of controls and expressed as a percentage. The IC50 values were determined from plots of % survival against drug concentration. Each experiment was repeated in triplicates of triplicates and a mean value was obtained and stated as IC50 (μM) ± SD. Untreated cells were used as a negative control, and cells treated with cisplatin were used as a positive control.

[2] = tested on: A2780 ovarian cancer cells; assay: 24-hour MTT chemosensitivity assay with 72-hour recovery, A2780; format: cell-based, human; settings: for Selectivity index (SI), A2780: mean IC50 PNT2 / mean IC50 A2780
Procedure: as §1, §2, §3

[3] = tested on: PNT2 non-cancerous human prostate cells; assay: 24-hour MTT chemosensitivity assay with 72-hour recovery, PNT2; format: cell-based
Procedure: as §1, §2, §3

[4] = tested on: A2780cisR cisplatin-resistant ovarian cancer cells; assay: 24-hour MTT chemosensitivity assay with 72-hour recovery, A2780cisR; format: cell-based, human; settings: for IC50: read-out: IC50 values ±SD, A2780cisR; for Selectivity index (SI), A2780cisR: mean IC50 PNT2 / mean IC50 A2780cisR
Procedure: as §1, §2, §3

[5] = tested on: A2780 cells; assay: FITC annexin-V / PI apoptosis assay by flow cytometry; format: cell-based, human; settings: A2780, 24 h, complexes 2×IC50, doxorubicin 0.5 µM; for viability at 0.5 µM: Homo sapiens
From the text: Annexin V‐FITC and propidium iodide (PI) have been used to distinguish between viable cells (Q1‐LL), early apoptotic cells (Q1‐LR), late apoptotic cells (Q1‐UR), and necrotic cells (Q1‐UL). […] Both complexes 6 and 8 induce apoptosis of A2780 cells and treatment with the complexes results in 99.6 % and 95.4 % of the cells in late apoptosis, respectively.
Figure 9 Flow cytometry analysis of A2780 cells exposed to complexes 6 or 8 at twice the IC50 concentration compared to a negative control. FITC reads annexin fluorescence and PE reads propidium iodide. Abbreviations: Q1‐UL=non‐viable cells; Q1‐UR=late‐stage apoptotic cells; Q1‐LR=early‐stage apoptotic cells and Q1‐LL=healthy cells.
FITC annexin‐V apoptosis assay: Flow cytometry analysis of apoptotic populations was carried out using the FITC Annexin V Apoptosis Detection Kit with PI (BioLegend®) according to manufacturer's instructions. Briefly, A2780 cells were seeded in 6‐well plates at a concentration of 1.0×10^6 cells per well and the plates were incubated for 24 h at 37 °C and a 5 % CO2 humidified atmosphere. […] Cells were then harvested using trypsin (without EDTA) and stained with PI/Annexin V‐FITC. After staining in the dark for 15 min at room temperature, cell pellets were analysed in a BD Accuri C6 Plus System flow cytometer and data was analysed using the BD Accuri C6 Plus software. These experiments were carried out in duplicate of triplicates in independent experiments; although only selected dot plots are shown, full numerical data and statistical analysis can be found in the Supporting Information.

[6] = Homo sapiens, NCI-H460, read-out: IC50 values ±SD, H460
[7] = Homo sapiens, A2780, read-out: IC50 values ±SD, A2780
[8] = Homo sapiens, PNT2, read-out: IC50 values ±SD, PNT2
[9] = 24 h exposure, 72 h recovery, MTT, read-out: IC50 values ±SD, H460
[10] = 24 h exposure, 72 h recovery, MTT, read-out: IC50 values ±SD, A2780
[11] = 24 h exposure, 72 h recovery, MTT, read-out: IC50 values ±SD, PNT2
[12] = 24 h exposure, 72 h recovery, MTT
[13] = Combined results, Average of two experiments

Compound: CC(=O)N1CN2CN(C(C)=O)CP(C2)C1 [DAPTA, 3,7‐diacetyl‐1,3,7‐triaza‐5‐phosphabicyclo[3.3.1]nonane]
- IC50 [1, 6]: ≥ 100 µM
- IC50 [2, 7]: ≥ 100 µM
- IC50 [3, 8]: ≥ 100 µM
- IC50 ([4]; Homo sapiens, A2780cisR): ≥ 100 µM

Compound: C1N2CN3CN1CP(C2)C3 [PTA, 1,3,5‐triaza‐7‐phosphaadamantane]
- IC50 [1, 6]: ≥ 100 µM
- IC50 [2, 7]: ≥ 100 µM
- IC50 [3, 8]: ≥ 100 µM
- IC50 ([4]; Homo sapiens, A2780cisR): ≥ 100 µM

Compound: (η^6‐p‐cymene)(DAPTA)Ru(Mnt) [Complex 5]
- IC50 [1, 9]: ≥ 100 µM
- IC50 [2, 10]: 14 ± 2 µM
- Selectivity index (SI), A2780 [2]: 2.36
- IC50 [3, 11]: 33 ± 1.4 µM
- IC50 [4, 12]: 72 ± 6 µM
- Selectivity factor (cross-resistance, resistance factor RF) ([4]; IC50 A2780cisR / IC50 A2780): 5.1
- Selectivity index (SI), A2780cisR [4]: 0.49

Compound: O=S(=O)(O)c1cccc(P(c2ccc(C(F)(F)F)cc2)c2cccc(S(=O)(=O)O)c2)c1 [p-DANPHOS, bis(3‐sulfonatophenyl)(4‐trifluoromethylphenyl)phosphine disodium dihydrate]
- IC50 [1, 6]: ≥ 100 µM
- IC50 [2, 7]: ≥ 100 µM
- IC50 [3, 8]: ≥ 100 µM
- IC50 ([4]; Homo sapiens, A2780cisR): ≥ 100 µM

Compound: O=S(=O)(O)c1cccc(P(c2cccc(S(=O)(=O)O)c2)c2cccc(S(=O)(=O)O)c2)c1 [TPPTS, triphenylphosphine‐3,3′,3′′‐trisulfonic acid trisodium salt]
- IC50 [1, 9]: ≥ 100 µM
- IC50 [2, 10]: ≥ 100 µM
- IC50 [3, 11]: ≥ 100 µM
- IC50 [4, 12]: ≥ 100 µM

Compound: COc1cccc2c1C(=O)c1c(O)c3c(c(O)c1C2=O)C[C@@](O)(C(=O)CO)C[C@@H]3O[C@H]1C[C@H](N)[C@H](O)[C@H](C)O1 [Doxorubicin, doxorubicin, reference compound]
- Early apoptosis (Q1-LR) [5, 13]: 0.0%
- Late apoptosis (Q1-UR) [5, 13]: 99.9%
- Necrosis (Q1-UL) [5, 13]: 0.1%
- Early apoptosis (Q1-LR) ([5]; Experiment 1, Average): 0.0%
- Late apoptosis (Q1-UR) ([5]; Experiment 1, Average): 99.9%
- Necrosis (Q1-UL) ([5]; Experiment 1, Average): 0.1%
- Viable cells (Q1-LL) ([5]; Experiment 1, Average): 0.0%
- Early apoptosis (Q1-LR) ([5]; Experiment 1, Rep 1): 0.0%
- Late apoptosis (Q1-UR) ([5]; Experiment 1, Rep 1): 99.8%
- Necrosis (Q1-UL) ([5]; Experiment 1, Rep 1): 0.2%
- Early apoptosis (Q1-LR) ([5]; Experiment 1, Rep 2): 0.0%
- Late apoptosis (Q1-UR) ([5]; Experiment 1, Rep 2): 99.9%
- Necrosis (Q1-UL) ([5]; Experiment 1, Rep 2): 0.1%
- Early apoptosis (Q1-LR) ([5]; Experiment 1, Rep 3): 0.0%
- Late apoptosis (Q1-UR) ([5]; Experiment 1, Rep 3): 100.0%
- Necrosis (Q1-UL) ([5]; Experiment 1, Rep 3): 0.0%
- Early apoptosis (Q1-LR) ([5]; Experiment 2, Average): 0.0%
- Late apoptosis (Q1-UR) ([5]; Experiment 2, Average): 99.9%
- Necrosis (Q1-UL) ([5]; Experiment 2, Average): 0.0%
- Viable cells (Q1-LL) ([5]; Experiment 2, Average): 0.0%
- Early apoptosis (Q1-LR) ([5]; Experiment 2, Rep 1): 0.0%
- Late apoptosis (Q1-UR) ([5]; Experiment 2, Rep 1): 99.9%
- Necrosis (Q1-UL) ([5]; Experiment 2, Rep 1): 0.0%
- Early apoptosis (Q1-LR) ([5]; Experiment 2, Rep 2): 0.0%
- Late apoptosis (Q1-UR) ([5]; Experiment 2, Rep 2): 99.9%
- Necrosis (Q1-UL) ([5]; Experiment 2, Rep 2): 0.1%
- Early apoptosis (Q1-LR) ([5]; Experiment 2, Rep 3): 0.0%
- Late apoptosis (Q1-UR) ([5]; Experiment 2, Rep 3): 100.0%
- Necrosis (Q1-UL) ([5]; Experiment 2, Rep 3): 0.0%
- viability at 0.5 µM ([5]; Combined results, Average of two experiments, read-out: Viable cells (Q1-LL)): 0%
- viability at 0.5 µM ([5]; Experiment 1, Average, read-out: Viable cells (Q1-LL)): 0%
- viability at 0.5 µM ([5]; Experiment 1, Rep 1, read-out: Viable cells (Q1-LL)): 0%
- viability at 0.5 µM ([5]; Experiment 1, Rep 2, read-out: Viable cells (Q1-LL)): 0%
- viability at 0.5 µM ([5]; Experiment 1, Rep 3, read-out: Viable cells (Q1-LL)): 0%
- viability at 0.5 µM ([5]; Experiment 2, Average, read-out: Viable cells (Q1-LL)): 0%
- viability at 0.5 µM ([5]; Experiment 2, Rep 1, read-out: Viable cells (Q1-LL)): 0%
- viability at 0.5 µM ([5]; Experiment 2, Rep 2, read-out: Viable cells (Q1-LL)): 0.1%
- viability at 0.5 µM ([5]; Experiment 2, Rep 3, read-out: Viable cells (Q1-LL)): 0%

Compound: Cc1ccc(C(C)C)cc1.N#CC1=C(C#N)[S][Ru-]([P+](c2ccc(C(F)(F)F)cc2)(c2cccc(S(=O)(=O)[O-])c2)c2cccc(S(=O)(=O)[O-])c2)[S]1.[Na+].[Na+] [Complex 7, (η^6‐p‐cymene)(p‐DANPHOS)Ru(Mnt)]
- IC50 [1, 9]: 2.3 ± 0.3 µM
- Selectivity index (SI), H460 ([1]; mean IC50 PNT2 / mean IC50 H460): 0.96
- IC50 [2, 10]: 2.8 ± 0.8 µM
- Selectivity index (SI), A2780 [2]: 0.79
- IC50 [3, 11]: 2.2 ± 0.1 µM
- IC50 [4, 12]: 2.3 ± 0.7 µM
- Selectivity index (SI), A2780cisR [4]: 0.96
